Among the data in US9409905B2, “Antibacterial compounds and methods for use” (PTC THERAPEUTICS, INC., priority 2011, dated 2016) are MIC values, retold here.

For experiment [1], the system named is Escherichia coli (E. coli) BAS849. Briefly: Antibacterial activity, microbroth dilution MIC (Table 1). It counts as cell-based. Conditions: microbroth dilution, super sensitive Gram-negative E. coli BAS849, read-out: MIC, BAS849. The source says: (§1) The antibacterial activity from a microbroth dilution method may be presented as the minimum inhibitory concentration (MIC in μg/mL). The MIC value is the lowest concentration of drug which prevents macroscopically visible growth under test conditions.
(§2) Antibacterial activity of test compounds against the super sensitive Gram-negative Escherichia coli (E. coli) BAS849 bacterium, the control Gram-negative E. coli 25922 strain and the Gram-positive Staphylococcus aureus (S. aureus) 29213 bacterium are shown in Table 1.

Experiment [2] relates to Staphylococcus aureus (S. aureus) 29213. Described as above. It counts as cell-based. Conditions: microbroth dilution, Gram-positive S. aureus 29213, read-out: MIC, 29213.
Text: as §1, §2

The test system of another experiment is E. coli 25922. The experiment is described as above. It counts as cell-based, Escherichia coli. Conditions: Escherichia coli; microbroth dilution; control Gram-negative E. coli 25922 strain; read-out: MIC, 25922.
Text: as §1, §2

The next experiment concerns E. coli LZ3111. Put plainly: Antibacterial activity, MIC, quinolone resistant strain (Table 2). It counts as cell-based. Conditions: Escherichia coli, LZ3111, read-out: MIC LZ3111.
Text: as §1
Mutations in these regions are known to confer a high level resistance to the quinolone class of antibiotics.

≈ marks a conversion by molar mass, not a printed value. Some results are limits rather than exact numbers.

Turning to `CCc1cc(C(=O)O)c(=O)[nH]c1-c1cc2cc(CN(CC)CC)n(C)c2cc1Cl` [Cpd 92, 6-(6-chloro-2-((diethylamino)methyl)-1-methyl-1H-indol-5-yl)-5-ethyl-2-oxo-1,2-dihydropyridine-3-carboxylic acid], the MIC (in experiment [1]; in experiment [2]; in the experiment with E. coli 25922; in the experiment with E. coli LZ3111) was 12.5 to 150 µg/mL (≈ 30.1 to 361 µM) throughout.
Consider `CCc1cc(C(=O)O)c(=O)[nH]c1-c1cc2cc(CN(C)C)n(C)c2cc1Cl` [Cpd 93, 6-(6-chloro-2-((dimethylamino)methyl)-1-methyl-1H-indol-5-yl)-5-ethyl-2-oxo-1,2-dihydropyridine-3-carboxylic acid], for which the MIC (in experiment [1]; in experiment [2]; with E. coli 25922; in the experiment with E. coli LZ3111) was 12.5 to 150 µg/mL (≈ 32.2 to 387 µM) throughout.
In the case of `CCc1cc(C(=O)O)c(=O)[nH]c1-c1cc2cc(CN3CCOCC3)n(C)c2cc1C` [Cpd 94, 6-(1,6-dimethyl-2-(morpholinomethyl)-1H-indol-5-yl)-5-ethyl-2-oxo-1,2-dihydropyridine-3-carboxylic acid], the MIC (in experiment [1]; in experiment [2]; in the experiment on E. coli 25922; in the experiment on E. coli LZ3111) was 12.5 to 150 µg/mL (≈ 30.5 to 366 µM) each time.
For the molecule `CCc1cc(C(=O)O)c(=O)[nH]c1-c1cc2cc(CN(CC)CC)n(C)c2cc1C` [Cpd 95, 6-(2-((diethylamino)methyl)-1,6-dimethyl-1H-indol-5-yl)-5-ethyl-2-oxo-1,2-dihydropyridine-3-carboxylic acid], the MIC (in experiment [1]; in experiment [2]; in the experiment with E. coli 25922; in the experiment with E. coli LZ3111) was 12.5 to 150 µg/mL (≈ 31.6 to 379 µM) each time.
Consider `CCc1cc(C(=O)O)c(=O)[nH]c1-c1cc2cc(CN(C)C)n(C)c2cc1C` [Cpd 96, 6-(2-((dimethylamino)methyl)-1,6-dimethyl-1H-indol-5-yl)-5-ethyl-2-oxo-1,2-dihydropyridine-3-carboxylic acid], for which the MIC (in experiment [1]; in experiment [2]; in the experiment with E. coli 25922; with E. coli LZ3111) was 12.5 to 150 µg/mL (≈ 34 to 408 µM) in each case.
Take `CCc1cc(C(=O)O)c(=O)[nH]c1-c1cc(F)c2c(c1)cc(CN1CCCC1)n2C` [Cpd 97, 5-ethyl-6-(7-fluoro-1-methyl-2-(pyrrolidin-1-ylmethyl)-1H-indol-5-yl)-2-oxo-1,2-dihydropyridine-3-carboxylic acid]: the MIC (usually the lowest concentration that inhibits growth of the organism) in experiment [1] is below 1 µg/mL; in experiment [2], 12.5 to 150 µg/mL (≈ 31.5 to 377 µM); in the experiment with E. coli 25922, 1 to 3.5 µg/mL (≈ 2.52 to 8.81 µM); in the experiment with E. coli LZ3111, 12.5 to 150 µg/mL (≈ 31.5 to 377 µM).
As for `CCc1cc(C(=O)O)c(=O)[nH]c1-c1cc(F)c2c(c1)cc(CN1CCOCC1)n2C` [Cpd 98, 5-ethyl-6-(7-fluoro-1-methyl-2-(morpholinomethyl)-1H-indol-5-yl)-2-oxo-1,2-dihydropyridine-3-carboxylic acid], the MIC was below 1 µg/mL in experiment [1], 12.5 to 150 µg/mL (≈ 30.2 to 363 µM) in experiment [2], 3.5 to 12.5 µg/mL (≈ 8.47 to 30.2 µM) in the experiment with E. coli 25922 and 12.5 to 150 µg/mL (≈ 30.2 to 363 µM) in the experiment with E. coli LZ3111.
Consider `CCc1cc(C(=O)O)c(=O)[nH]c1-c1cc(C)c2c(c1)cc(CN1CCCC1)n2C` [Cpd 99, 6-(1,7-dimethyl-2-(pyrrolidin-1-ylmethyl)-1H-indol-5-yl)-5-ethyl-2-oxo-1,2-dihydropyridine-3-carboxylic acid], for which the MIC in experiment [1] is below 1 µg/mL; in experiment [2] it was 12.5 to 150 µg/mL (≈ 31.8 to 381 µM); in the experiment on E. coli 25922 it was 3.5 to 12.5 µg/mL (≈ 8.89 to 31.8 µM); in the experiment on E. coli LZ3111, 12.5 to 150 µg/mL (≈ 31.8 to 381 µM).
For the molecule `CCc1cc(C(=O)O)c(=O)[nH]c1-c1cc(C)c2c(c1)cc(CN1CCCCC1)n2C` [Cpd 100, 6-(1,7-dimethyl-2-(piperidin-1-ylmethyl)-1H-indol-5-yl)-5-ethyl-2-oxo-1,2-dihydropyridine-3-carboxylic acid], the MIC was below 1 µg/mL in experiment [1], 12.5 to 150 µg/mL (≈ 30.7 to 368 µM) in experiment [2], 3.5 to 12.5 µg/mL (≈ 8.59 to 30.7 µM) in the experiment on E. coli 25922 and 12.5 to 150 µg/mL (≈ 30.7 to 368 µM) in the experiment on E. coli LZ3111.
Turning to `CCc1cc(C(=O)O)c(=O)[nH]c1-c1cc(F)c2c(c1)cc(CN(CC)CC)n2C` [Cpd 101, 6-(2-((diethylamino)methyl)-7-fluoro-1-methyl-1H-indol-5-yl)-5-ethyl-2-oxo-1,2-dihydropyridine-3-carboxylic acid], the MIC in experiment [1] is below 1 µg/mL; in experiment [2] it was 12.5 to 150 µg/mL (≈ 31.3 to 376 µM); in the experiment on E. coli 25922 it was 3.5 to 12.5 µg/mL (≈ 8.76 to 31.3 µM); in the experiment on E. coli LZ3111, 12.5 to 150 µg/mL (≈ 31.3 to 376 µM).
For `CCc1cc(C(=O)O)c(=O)[nH]c1-c1cc(F)c2c(c1)cc(CN1CCCCC1)n2C` [Cpd 102, 5-ethyl-6-(7-fluoro-1-methyl-2-(piperidin-1-ylmethyl)-1H-indol-5-yl)-2-oxo-1,2-dihydropyridine-3-carboxylic acid], the MIC in experiment [1] was below 1 µg/mL; in experiment [2], 12.5 to 150 µg/mL (≈ 30.4 to 365 µM); in the experiment on E. coli 25922, 3.5 to 12.5 µg/mL (≈ 8.51 to 30.4 µM); in the experiment with E. coli LZ3111, 12.5 to 150 µg/mL (≈ 30.4 to 365 µM).
On to `CCc1cc(C(=O)O)c(=O)[nH]c1-c1cc(C)c2c(c1)cc(CN1CCOCC1)n2C` [Cpd 103, 6-(1,7-dimethyl-2-(morpholinomethyl)-1H-indol-5-yl)-5-ethyl-2-oxo-1,2-dihydropyridine-3-carboxylic acid], for which the MIC was below 1 µg/mL in experiment [1], 12.5 to 150 µg/mL (≈ 30.5 to 366 µM) in experiment [2], 12.5 to 150 µg/mL (≈ 30.5 to 366 µM) in the experiment on E. coli 25922 and 12.5 to 150 µg/mL (≈ 30.5 to 366 µM) in the experiment on E. coli LZ3111.
For the molecule `CCc1cc(C(=O)O)c(=O)[nH]c1-c1cc(C)c2c(c1)cc(CN(CC)CC)n2C` [Cpd 104, 6-(2-((diethylamino)methyl)-1,7-dimethyl-1H-indol-5-yl)-5-ethyl-2-oxo-1,2-dihydropyridine-3-carboxylic acid], the MIC in experiment [1] is below 1 µg/mL; in experiment [2] it was 12.5 to 150 µg/mL (≈ 31.6 to 379 µM); with E. coli 25922, 3.5 to 12.5 µg/mL (≈ 8.85 to 31.6 µM); in the experiment on E. coli LZ3111, 12.5 to 150 µg/mL (≈ 31.6 to 379 µM).
`CCc1cc(C(=O)O)c(=O)[nH]c1-c1cc(C)c2c(c1)cc(CN(C)C)n2C` [Cpd 105, 6-(2-((dimethylamino)methyl)-1,7-dimethyl-1H-indol-5-yl)-5-ethyl-2-oxo-1,2-dihydropyridine-3-carboxylic acid]: the MIC in experiment [1] is below 1 µg/mL; in experiment [2] it was 12.5 to 150 µg/mL (≈ 34 to 408 µM); with E. coli 25922 it was 3.5 to 12.5 µg/mL (≈ 9.53 to 34 µM); in the experiment on E. coli LZ3111 it was 12.5 to 150 µg/mL (≈ 34 to 408 µM).
For the molecule `CCc1cc(C(=O)O)c(=O)[nH]c1-c1cc(F)c2c(c1)cc(CN(C)C)n2C` [Cpd 106, 6-(2-((dimethylamino)methyl)-7-fluoro-1-methyl-1H-indol-5-yl)-5-ethyl-2-oxo-1,2-dihydropyridine-3-carboxylic acid], the MIC in experiment [1] is below 1 µg/mL; in experiment [2], 12.5 to 150 µg/mL (≈ 33.7 to 404 µM); with E. coli 25922 it was 1 to 3.5 µg/mL (≈ 2.69 to 9.42 µM); in the experiment with E. coli LZ3111 it was 12.5 to 150 µg/mL (≈ 33.7 to 404 µM).
Take `CCc1cc(C(=O)O)c(=O)[nH]c1-c1cc2cc(CN3CCCC3)n(C)c2cc1OC` [Cpd 107, 5-ethyl-6-(6-methoxy-1-methyl-2-(pyrrolidin-1-ylmethyl)-1H-indol-5-yl)-2-oxo-1,2-dihydropyridine-3-carboxylic acid]: the MIC (in experiment [1]; in experiment [2]; in the experiment with E. coli 25922; in the experiment on E. coli LZ3111) was 12.5 to 150 µg/mL (≈ 30.5 to 366 µM) each time.
As to `CCc1cc(C(=O)O)c(=O)[nH]c1-c1cc2cc(CN3CCOCC3)n(C)c2cc1OC` [Cpd 108, 5-ethyl-6-(6-methoxy-1-methyl-2-(morpholinomethyl)-1H-indol-5-yl)-2-oxo-1,2-dihydropyridine-3-carboxylic acid], the MIC (in experiment [1]; in experiment [2]; in the experiment with E. coli 25922; in the experiment with E. coli LZ3111) was 12.5 to 150 µg/mL (≈ 29.4 to 353 µM) each time.
For `CCc1c(-c2ccc3c(c2)cc(CN2CCC2)n3C)[nH]c(=O)c(C(=O)O)c1C(=O)O` [Cpd 109, 6-(2-(azetidin-1-ylmethyl)-1-methyl-1H-indol-5-yl)-5-ethyl-2-oxo-1,2-dihydropyridine-3,4-dicarboxylic acid], the MIC (in experiment [1]; in experiment [2]; with E. coli 25922; with E. coli LZ3111) was 12.5 to 150 µg/mL (≈ 30.5 to 366 µM) throughout.
For `CCc1c(-c2ccc3c(c2)cc(CN2CCCC2)n3C)[nH]c(=O)c(C(=O)O)c1C(=O)O` [Cpd 110, 5-ethyl-6-(1-methyl-2-(pyrrolidin-1-ylmethyl)-1H-indol-5-yl)-2-oxo-1,2-dihydropyridine-3,4-dicarboxylic acid], the MIC (in experiment [1]; in experiment [2]; in the experiment on E. coli 25922; in the experiment on E. coli LZ3111) was 12.5 to 150 µg/mL (≈ 29.5 to 354 µM) throughout.
Consider `CCc1c(-c2ccc3c(c2)cc(CN(C)C)n3C)[nH]c(=O)c(C(=O)O)c1C(=O)O` [Cpd 111, 6-(2-((dimethylamino)methyl)-1-methyl-1H-indol-5-yl)-5-ethyl-2-oxo-1,2-dihydropyridine-3,4-dicarboxylic acid], for which the minimum inhibitory concentration (MIC) (in experiment [1]; in experiment [2]; in the experiment with E. coli 25922; in the experiment on E. coli LZ3111) was 12.5 to 150 µg/mL (≈ 31.5 to 377 µM) each time.
For `CCc1cc(C(=O)O)c(=O)[nH]c1-c1ccc2c(c1)cc(CNC)n2C` [Cpd 112, 5-ethyl-6-(1-methyl-2-((methylamino)methyl)-1H-indol-5-yl)-2-oxo-1,2-dihydropyridine-3-carboxylic acid], the MIC was below 1 µg/mL in experiment [1], 12.5 to 150 µg/mL (≈ 36.8 to 442 µM) in experiment [2], below 1 µg/mL in the experiment with E. coli 25922 and 12.5 to 150 µg/mL (≈ 36.8 to 442 µM) in the experiment on E. coli LZ3111.
As to `CCc1cc(C(=O)O)c(=O)[nH]c1-c1ccc2c(c1)cc(CNC(C)(C)C)n2C` [Cpd 113, 6-(2-((tert-butylamino)methyl)-1-methyl-1H-indol-5-yl)-5-ethyl-2-oxo-1,2-dihydropyridine-3-carboxylic acid], the MIC in experiment [1] was below 1 µg/mL; in experiment [2], 12.5 to 150 µg/mL (≈ 32.8 to 393 µM); with E. coli 25922, below 1 µg/mL; with E. coli LZ3111, 12.5 to 150 µg/mL (≈ 32.8 to 393 µM).
For `CCc1cc(C(=O)O)c(=O)[nH]c1-c1ccc2c(c1)cc(CNCc1ccccc1)n2C` [Cpd 114, 6-(2-((benzylamino)methyl)-1-methyl-1H-indol-5-yl)-5-ethyl-2-oxo-1,2-dihydropyridine-3-carboxylic acid], the minimum inhibitory concentration (MIC) in experiment [1] was below 1 µg/mL; in experiment [2] it was 3.5 to 12.5 µg/mL (≈ 8.42 to 30.1 µM); in the experiment with E. coli 25922, below 1 µg/mL; with E. coli LZ3111, 12.5 to 150 µg/mL (≈ 30.1 to 361 µM).
